# Key:
# [1] = Drug level in Sprague-Dawley rat liver after 1 hr; format: ADME, tissue-based; settings: read-out: Activity
# [2] = Ratio of drug level in liver to plasma in Sprague-Dawley rat at 1 hr; format: ADME, tissue-based; settings: liver and plasma
# [3] = molecular target: T1, Glucocorticoid receptor (Homo sapiens, UniProt P04150); assay: Inhibition of human GR expressed in hGRAF cells; format: cell-based
# T1 sequence (P04150 whole entry): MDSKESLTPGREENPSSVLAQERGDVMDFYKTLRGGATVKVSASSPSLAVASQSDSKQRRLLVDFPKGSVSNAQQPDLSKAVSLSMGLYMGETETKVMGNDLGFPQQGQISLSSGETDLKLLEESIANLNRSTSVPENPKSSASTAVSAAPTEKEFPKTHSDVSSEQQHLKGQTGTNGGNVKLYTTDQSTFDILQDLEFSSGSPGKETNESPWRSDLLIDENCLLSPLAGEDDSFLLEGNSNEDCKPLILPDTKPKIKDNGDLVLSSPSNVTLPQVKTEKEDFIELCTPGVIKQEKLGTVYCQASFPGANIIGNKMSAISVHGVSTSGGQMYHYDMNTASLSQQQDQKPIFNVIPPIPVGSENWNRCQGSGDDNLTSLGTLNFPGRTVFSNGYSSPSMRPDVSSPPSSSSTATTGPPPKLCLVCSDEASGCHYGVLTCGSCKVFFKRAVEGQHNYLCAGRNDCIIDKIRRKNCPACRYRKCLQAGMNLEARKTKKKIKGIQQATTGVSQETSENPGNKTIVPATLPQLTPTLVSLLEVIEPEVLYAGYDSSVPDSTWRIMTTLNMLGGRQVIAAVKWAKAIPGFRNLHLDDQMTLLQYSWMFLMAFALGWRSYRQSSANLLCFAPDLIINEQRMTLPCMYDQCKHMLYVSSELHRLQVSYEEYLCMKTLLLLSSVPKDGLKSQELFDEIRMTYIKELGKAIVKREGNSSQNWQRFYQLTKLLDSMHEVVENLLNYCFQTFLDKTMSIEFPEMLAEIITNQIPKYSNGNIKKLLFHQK
# [4] = molecular target: T1, Glucocorticoid receptor; assay: Displacement of radiolabeled Dexamethasone from human GR
# [5] = molecular target: T1, Glucocorticoid receptor; assay: Inhibition of human GR transcriptional activation by HepTAT cells; format: cell-based
# [6] = test system: Rattus norvegicus; assay: Inhibition of prednisilone-induced TAT level in Sprague-Dawley rats at 100 mg/kg, po; format: functional
# [7] = test system: Rattus norvegicus; assay: Inhibition of prednisilone-induced lymphopenia in Sprague-Dawley rats at 100 mg/kg, po; format: functional
# [8] = test system: Rattus norvegicus; assay: Inhibition of prednisilone-induced glycogen depostion in Sprague-Dawley rats at 100 mg/kg, po; format: functional
Compound,concentration at 1 h [1],Kp at 1 h [2],Ki [3],Ki [4],Ki [5],inhibition in vivo at 100 mg/kg [6],inhibition in vivo at 100 mg/kg [7],inhibition in vivo at 100 mg/kg [8]
CC#C[C@]1(O)CC[C@H]2[C@@H]3CCC4=CC(=O)CCC4=C3[C@@H](c3ccc(N(C)Cc4ccc(C(=O)NCc5cccc(C(=O)O)c5)cc4)cc3)C[C@@]21C,–,–,–,–,–,3%,-10%,-12%
CC#C[C@]1(O)CC[C@H]2[C@@H]3CCC4=CC(=O)CCC4=C3[C@@H](c3ccc(N(C)CC(=O)N(C)Cc4cccc(C(=O)O)c4)cc3)C[C@@]21C,–,–,–,–,–,20%,-10%,9%
CC#C[C@]1(O)CC[C@H]2[C@@H]3CCC4=CC(=O)CCC4=C3[C@@H](c3ccc(N(C)CC(=O)Nc4nc(CC(=O)O)cs4)cc3)C[C@@]21C,–,–,765 nM,35 nM,31 nM,–,–,–
CC#C[C@]1(O)CC[C@H]2[C@@H]3CCC4=CC(=O)CCC4=C3[C@@H](c3ccc(N(C)CC(=O)Nc4ccc(C(=O)O)cc4)cc3)C[C@@]21C,–,–,91.8 nM,2.7 nM,75 nM,–,–,–
CC#C[C@]1(O)CC[C@H]2[C@@H]3CCC4=CC(=O)CCC4=C3[C@@H](c3ccc(N(C)C)cc3)C[C@@]21C [MIFEPRISTONE],–,–,–,–,–,101%,104%,77%
CC#C[C@]1(O)CC[C@H]2[C@@H]3CCC4=CC(=O)CCC4=C3[C@@H](c3ccc(N(C)Cc4ccc(C(=O)N[C@H](CCSC)C(=O)O)cc4OC)cc3)C[C@@]21C,–,–,–,–,–,-27%,-4%,8%
CC#C[C@]1(O)CC[C@H]2[C@@H]3CCC4=CC(=O)CCC4=C3[C@@H](c3ccc(N(C)CCCCC(=O)O)cc3)C[C@@]21C,–,–,15 nM,4.8 nM,127 nM,–,–,–

# Continued, in another order:
concentration at 1 h [1],Kp at 1 h [2],Ki [3],Ki [4],Ki [5],Compound,inhibition in vivo at 100 mg/kg [6],inhibition in vivo at 100 mg/kg [7],inhibition in vivo at 100 mg/kg [8]
37000 ng/g,17,–,–,–,CC#C[C@]1(O)CC[C@H]2[C@@H]3CCC4=CC(=O)CCC4=C3[C@@H](c3ccc(N(C)Cc4ccc(C(C)C(=O)O)cc4)cc3)C[C@@]21C (stereo partly drawn),–,–,–
–,–,30 nM,3 nM,112 nM,CC#C[C@]1(O)CC[C@H]2[C@@H]3CCC4=CC(=O)CCC4=C3[C@@H](c3ccc(N(C)Cc4cccc(C(=O)O)c4)cc3)C[C@@]21C,–,–,–
–,–,4.4 nM,1.8 nM,32 nM,CC#C[C@]1(O)CC[C@H]2[C@@H]3CCC4=CC(=O)CCC4=C3[C@@H](c3ccc(N(C)Cc4ccc(CC(=O)O)cc4)cc3)C[C@@]21C,95%,117%,101%
–,–,21 nM,0.5 nM,64 nM,CC#C[C@]1(O)CC[C@H]2[C@@H]3CCC4=CC(=O)CCC4=C3[C@@H](c3ccc(N(C)CC(=O)N(C)c4ccc(C(=O)O)cc4)cc3)C[C@@]21C,–,–,–
–,–,39 nM,1.1 nM,57 nM,CC#C[C@]1(O)CC[C@H]2[C@@H]3CCC4=CC(=O)CCC4=C3[C@@H](c3ccc(N(C)CC(=O)N(Cc4ccccc4)Cc4ccc(C(=O)O)cc4)cc3)C[C@@]21C,–,–,–
–,–,33 nM,0.9 nM,33 nM,CC#C[C@]1(O)CC[C@H]2[C@@H]3CCC4=CC(=O)CCC4=C3[C@@H](c3ccc(N(C)CC(=O)N(Cc4ccc(C(=O)O)cc4)c4ccc(Br)cc4)cc3)C[C@@]21C,–,–,–
–,–,90 nM,0.6 nM,36 nM,CC#C[C@]1(O)CC[C@H]2[C@@H]3CCC4=CC(=O)CCC4=C3[C@@H](c3ccc(N(C)Cc4ccc(C(=O)NCC(=O)O)cc4)cc3)C[C@@]21C,48%,40%,47%
–,–,12 nM,1.8 nM,52 nM,CC#C[C@]1(O)CC[C@H]2[C@@H]3CCC4=CC(=O)CCC4=C3[C@@H](c3ccc(N(C)Cc4ccc(C(=O)O)cc4)cc3)C[C@@]21C,106%,123%,94%

# — ChEMBL document CHEMBL1143774, “Parallel strategies for the preparation and selection of liver-targeted glucocorticoid receptor antagonists” (Bioorg Med Chem Lett, 2007)
